How the values were obtained:
MEXF 276L (melanoma) = assay: Propidium iodide monolayer cell proliferation assay, MEXF 276L; format: cell-based, human
Method: Cell proliferation assay: A modified propidium iodide (PI) based monolayer assay was used to assess the anti-cancer activity of the compounds (Dengler WA, Schulte J, Berger DP, Mertelsmann R, Fiebig HH, Anti-Cancer Drugs 1995, 6: 522-532). Briefly, cells were harvested from exponential phase cultures, counted and plated in 96 well flat-bottom microtiter plates at a cell density of 4,000 to 30,000 cells/well dependent on the cell line's growth rate. After a 24 h recovery period, to allow the cells to resume exponential growth, 10 μl of culture medium (4 control wells/cell line/plate) or of culture medium with test compounds were added. PM14 was applied at ten concentrations in half-log increments in duplicates up to 3.16 pM and treatment continued for four days. […] After an incubation period of 1-2 hours at room temperature, fluorescence (FU) was measured using the Enspire Multimode Plate Reader (excitation A=530 nm, emission A=620 nm) to quantify the amount of attached viable cells.
IC50 and IC70 values were calculated by 4 parameter non-linear curve fit using Oncotest Warehouse Software. […]
IC50 values were determined as described in Example 2, but using the following human cancer cell lines: • MEXF 276L (melanoma) • MEXF 462NL (melanoma) • MEXF 1341L (melanoma)

[1] = MRI-H-121 mouse xenograft study, tolerability; format: in vivo, mice
Method: Tumor bearing animals were randomly allocated into 2 groups (N=10/group): PM14 administered at 1.25 mg/kg and placebo. All treatments were intravenously administered once a week for 3 consecutive weeks (days 0, 7 and 14).
Tumor volume and animal body weights were measured 2-3 times per week starting from the first day of treatment.
Treatment tolerability was assessed by monitoring body weight evolution, clinical signs of systemic toxicity, as well as evidences of local damage in the injection site.
Treatments producing >20% lethality and/or 20% net body weight loss were considered toxic. Animals were euthanized when their tumors reached ca. 2,000 mm^3 and/or severe necrosis was seen.

COc1c(C)cc2c(c1O)[C@@H]1[C@@H]3[C@@H]4SC[C@]5(N[C@H](CO)Cc6c5[nH]c5ccccc65)C(=O)OC[C@@H](c5c6c(c(C)c(OC(C)=O)c54)OCO6)N3[C@@H](O)[C@H](C2)N1C [PM14, ECUBECTEDIN]
IC70, μM (geometric mean) (MEXF 276L (melanoma)): 0.0003 µM
IC50 (MEXF 276L (melanoma); Homo sapiens, MEXF276L, read-out: IC50, μM (geometric mean)): 0.0002 µM
mortality ([1]; 1.25 mg/kg i.v. days 0, 7 and 14): No mortality
mean body weight reduction ([1]; Day 16, 1.25 mg/kg i.v. days 0, 7 and 14, reversible): ca. −15.0%
tolerability ([1]; MRI-H-121 tumor bearing animals, 1.25 mg/kg): well tolerated
